The structures appear in SMILES notation. Entries after “also recorded” stand apart in the source; their conditions may differ.

The text below walks through data of patent US20230053864A1, “Methods for Identifying Modulators of G Protein-Coupled Receptors” (University of Miami, priority 2019, published 2023).

The target of one assay is HCAR3 (Homo sapiens, UniProt P49019). As to conditions: literature value; read-out: EC50 at HCAR3 observed by Colosimo et al.; cited from earlier work.
Another assay deals with T1, GPR35 (Homo sapiens, UniProt Q9HC97).
T1 construct: expressed in transfected cells; host or cells: Saccharomyces cerevisiae BY4741-derived GPCR-Gα reporter strains, X-2 landing pad
T1 sequence (Q9HC97 whole entry): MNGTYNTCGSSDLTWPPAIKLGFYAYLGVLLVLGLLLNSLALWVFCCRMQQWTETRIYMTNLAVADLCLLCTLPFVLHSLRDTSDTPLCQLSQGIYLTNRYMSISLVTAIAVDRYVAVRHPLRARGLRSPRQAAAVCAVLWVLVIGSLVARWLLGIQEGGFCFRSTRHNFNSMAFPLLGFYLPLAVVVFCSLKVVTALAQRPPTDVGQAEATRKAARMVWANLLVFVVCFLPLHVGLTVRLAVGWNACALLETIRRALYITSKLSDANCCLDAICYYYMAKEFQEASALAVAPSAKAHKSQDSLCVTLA
In words: dCyFIRscreen profiling and titrations in yeast GPCR-Gα reporter strains. It is filed as cell-based.

The target in the next assay is T2, GPR65 (Homo sapiens, UniProt Q8IYL9).
T2 construct: expressed in transfected cells; host or cells: Saccharomyces cerevisiae BY4741-derived GPCR-Gα reporter strains, X-2 landing pad
T2 sequence (Q8IYL9 whole entry): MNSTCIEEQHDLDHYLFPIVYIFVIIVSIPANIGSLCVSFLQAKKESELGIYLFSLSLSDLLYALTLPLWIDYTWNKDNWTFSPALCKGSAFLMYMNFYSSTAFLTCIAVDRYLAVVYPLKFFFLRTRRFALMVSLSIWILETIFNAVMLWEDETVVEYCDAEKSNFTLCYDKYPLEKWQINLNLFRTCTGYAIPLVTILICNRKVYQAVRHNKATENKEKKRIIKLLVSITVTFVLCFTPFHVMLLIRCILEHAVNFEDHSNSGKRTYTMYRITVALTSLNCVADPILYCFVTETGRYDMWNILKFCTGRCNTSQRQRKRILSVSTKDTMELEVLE
The description is as above. The assay is classed as cell-based.

A further assay addresses T3, GPR68 (Homo sapiens, UniProt Q15743).
T3 construct: expressed in transfected cells; host or cells: Saccharomyces cerevisiae BY4741-derived GPCR-Gα reporter strains, X-2 landing pad
Described as above. It is filed as cell-based.

The target of another assay is T4, ADORA2A (Homo sapiens, UniProt P29274).
T4 construct: expressed in transfected cells; host or cells: Saccharomyces cerevisiae BY4741-derived GPCR-Gα reporter strains, X-2 landing pad
T4 sequence (P29274 whole entry): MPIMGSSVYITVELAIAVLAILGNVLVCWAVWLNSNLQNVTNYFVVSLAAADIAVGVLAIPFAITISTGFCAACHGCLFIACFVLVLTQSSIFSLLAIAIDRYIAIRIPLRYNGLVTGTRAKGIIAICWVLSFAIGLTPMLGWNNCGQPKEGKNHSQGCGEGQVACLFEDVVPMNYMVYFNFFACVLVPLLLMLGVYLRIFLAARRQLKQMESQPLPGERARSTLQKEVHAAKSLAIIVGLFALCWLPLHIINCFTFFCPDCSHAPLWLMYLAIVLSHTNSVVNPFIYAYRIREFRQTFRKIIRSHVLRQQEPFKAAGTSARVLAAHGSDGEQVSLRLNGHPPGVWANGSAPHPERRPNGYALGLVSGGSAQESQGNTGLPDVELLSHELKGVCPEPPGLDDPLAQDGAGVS
The assay is described as above. The assay is classed as cell-based.

For a further assay, the target named is T5, CNR2 (Homo sapiens, UniProt P34972).
T5 construct: expressed in transfected cells; host or cells: Saccharomyces cerevisiae BY4741-derived GPCR-Gα reporter strains, X-2 landing pad
T5 sequence (P34972 whole entry): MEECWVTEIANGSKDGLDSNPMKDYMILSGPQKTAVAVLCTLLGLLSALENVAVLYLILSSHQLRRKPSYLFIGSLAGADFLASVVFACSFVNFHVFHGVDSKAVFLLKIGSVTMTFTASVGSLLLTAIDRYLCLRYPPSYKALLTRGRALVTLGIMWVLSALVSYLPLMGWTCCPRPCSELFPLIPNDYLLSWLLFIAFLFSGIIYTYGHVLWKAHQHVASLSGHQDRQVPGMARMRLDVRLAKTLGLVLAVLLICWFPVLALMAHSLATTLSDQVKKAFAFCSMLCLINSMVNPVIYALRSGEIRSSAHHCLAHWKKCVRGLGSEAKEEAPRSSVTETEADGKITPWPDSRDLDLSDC
Put plainly: dCyFIRscreen profiling in yeast GPCR-Gα reporter strains. The assay is classed as cell-based.

T3 sequence (Q15743 whole entry): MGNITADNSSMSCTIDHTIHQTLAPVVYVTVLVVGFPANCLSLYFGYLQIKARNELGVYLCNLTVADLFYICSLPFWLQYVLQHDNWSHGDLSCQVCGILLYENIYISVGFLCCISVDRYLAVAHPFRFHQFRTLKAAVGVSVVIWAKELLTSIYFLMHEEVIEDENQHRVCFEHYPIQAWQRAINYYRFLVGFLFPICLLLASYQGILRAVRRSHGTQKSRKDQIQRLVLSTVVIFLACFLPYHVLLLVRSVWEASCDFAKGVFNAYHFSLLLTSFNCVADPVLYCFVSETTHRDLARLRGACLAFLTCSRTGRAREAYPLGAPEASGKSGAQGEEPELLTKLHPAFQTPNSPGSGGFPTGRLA
HCAR3, sequence (P49019 whole entry): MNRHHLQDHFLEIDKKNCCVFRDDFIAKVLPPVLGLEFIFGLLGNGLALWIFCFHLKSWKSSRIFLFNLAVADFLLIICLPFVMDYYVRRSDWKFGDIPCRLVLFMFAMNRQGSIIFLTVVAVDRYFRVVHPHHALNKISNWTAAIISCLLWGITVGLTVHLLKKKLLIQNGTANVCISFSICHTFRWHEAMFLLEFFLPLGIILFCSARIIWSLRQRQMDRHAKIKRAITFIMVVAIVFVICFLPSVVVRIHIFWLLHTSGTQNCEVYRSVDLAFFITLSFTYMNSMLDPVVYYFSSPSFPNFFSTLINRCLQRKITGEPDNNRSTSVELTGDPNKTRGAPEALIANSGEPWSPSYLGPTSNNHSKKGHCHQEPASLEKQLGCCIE
Method for ADORA2A: (§1) Individual Gα reporter strains were grown in SCD LoFo pH=7.0 at 30° C. to an OD=1.0 in a 2.0 mL 96-well DeepWell block (Greiner; 780271-FD). Cells were normalized to an OD of 0.1 in SCD LoFo pH=7.0 using a Biomek NXp liquid-handling robot. 10× ligand/vehicle stocks were prepared (see Table 2) and 4 μL were distributed to each well of a 384-well plate (Greiner; 781096) in quadruplicate using a Biomek NXp. 36 μL normalized cells were distributed to each well containing the appropriate 10× ligand/vehicle. Plates were sealed with a breathable cover (Diversified Biotech; BERM-2000) and incubated at 30° C. Fluorescence readings were collected after 18 hours using a plate reader (ClarioStar, BMG LabTech, Offenburg, Germany) (bottom read, 10 flashes/well, excitation filter: 430-10 nm, dichroic filter: LP 458 nm, emission filter: 482-16 nm, gain=1300 (1500 for FIG. 1B.)). Absorbance readings were also collected after 18 hours using the same instrument (22 flashes/well, excitation filter: 600 nm).
(§2) All titration curves were analyzed using Prism software and the pharmacological fitting function log(agonist) vs. response—Variable slope (four parameters) (GraphPad Software, San Diego, USA).
Method for CNR2: as §1
Method for GPR35: as §1, §2
Method for GPR65: as §1, §2
Method for GPR68: as §1, §2

One may read the EC50 as the concentration at which the effect is half-maximal. Consider `O=C(O)CCc1ccccc1` [phenylpropanoic acid], for which, at HCAR3, the EC50 is 208 µM.

Consider `O[C@H]1[C@H](O)[C@@H](O)[C@H](O)[C@@H](O)[C@H]1O` [inositol], for which the “activity at GPR35 in words (mode of action, potency range)” value on GPR35 is reported as “increase receptor signaling; also recorded: PAM-agonist”. In addition, the “activity at GPR65 in words (mode of action)” value on GPR65 is “increase receptor signaling and PAM-agonist and PAMs”. In addition, the “activity at GPR68 in words (mode of action)” value at GPR68 was “increase receptor signaling and PAM-agonist and PAMs”. Moreover, the “activity at ADORA2A in words (mode of action)” value at ADORA2A was “increase receptor signaling; also recorded: NAM-agonist”. In addition, the “activity at CNR2 in words (mode of action)” value on CNR2 is reported as “increase receptor signaling”.
